PubChem BioAssay AID232 (DTP/NCI, 2004)
Several values for one entry are separate records, joined by “and”; a condition that tells them apart may be missing. Equal values may be shown once. Inconclusive results and toxic doses are left out.

System: Gardner 6C3HED lymphosarcoma ip, C3AKF1 mice, survival T/C
Assay: NCI In Vivo Anticancer Drug Screen. Data for tumor model Lymphosarcoma Gardner 6C3HED (intraperitoneal) in C3AKF1 (CHKRF1) mice
Settings: endpoint: survival time, mean or median, schedule: Q01DX010 (ip), higher = longer survival
Method: The antitumor activity of compounds was measured in mice bearing transplantable tumors. Survival or tumor size were measured and the results are expressed as the measurement made in the treated group (T) divided by the measurement made in the vehicle treated control group (C). The tumor model used in this assay is Lymphosarcoma Gardner 6C3HED (intraperitoneal) in C3AKF1 (CHKRF1) mice

[1] = dose: 2.5 mg/kg/injection, vehicle: saline
[2] = dose: 5.0 mg/kg/injection, vehicle: saline
[3] = dose: 10.0 mg/kg/injection, vehicle: saline
[4] = dose: 1.0 mg/kg/injection, vehicle: saline
[5] = dose: 8.0 mg/kg/injection, vehicle: saline

Structure (SMILES): Nc1nc2n[nH]nc2c(=O)[nH]1
- T/C (dose: 25.0 mg/kg/injection, vehicle: alkali diluted with saline): 115 % of control
- T/C (dose: 50.0 mg/kg/injection, vehicle: alkali diluted with saline): 100 % of control and 120 % of control

Structure (SMILES): Nc1nc(=S)c2[nH]cnc2[nH]1
- T/C (dose: 1.25 mg/kg/injection, vehicle: other): 95 % of control and 100 % of control
- T/C (dose: 1.25 mg/kg/injection, vehicle: saline): 120 % of control
- T/C (dose: 2.5 mg/kg/injection, vehicle: other): 104 % of control
- T/C [1]: 100 % of control and 110 % of control
- T/C (dose: 5.0 mg/kg/injection, vehicle: other): 113 % of control
- T/C [2]: 100 % of control and 105 % of control
- T/C (dose: 10.0 mg/kg/injection, vehicle: other): 95 % of control
- T/C [3]: 100 % of control and 120 % of control

Structure (SMILES): N#[N+]c1cnc([O-])[nH]c1=O
- T/C [1]: 175 % of control
- T/C [2]: 158 % of control
- T/C [3]: 162 % of control

Structure (SMILES): C[n+]1c2ccccc2nc2c(N)cc(N)cc21
- T/C (dose: 12.0 mg/kg/injection, vehicle: saline): 113 % of control
- T/C (dose: 18.0 mg/kg/injection, vehicle: saline): 122 % of control
- T/C (dose: 40.0 mg/kg/injection, vehicle: saline): 113 % of control

Structure (SMILES): S=P(N1CC1)(N1CC1)N1CC1
- T/C [4]: 115 % of control and 120 % of control
- T/C (dose: 2.0 mg/kg/injection, vehicle: saline): 120 % of control
- T/C (dose: 4.0 mg/kg/injection, vehicle: saline): 160 % of control
- T/C [5]: 90 % of control and 110 % of control

Structure (SMILES): NC(Cc1ccc(N(CCCl)CCCl)cc1)C(=O)O (centres undefined)
- T/C [5]: 160 % of control
- T/C [3]: 103 % of control
- T/C (dose: 16.0 mg/kg/injection, vehicle: saline): 100 % of control and 105 % of control

Structure (SMILES): CS(=O)(=O)OCCN(CCOS(C)(=O)=O)c1ccc(N=O)cc1
- T/C [4]: 107 % of control
